System: EAE animal model of chronic progressive multiple sclerosis
Test: Chronic progressive EAE induced by MOG35-55 and pertussis toxin in mice, neurological scoring to day 35
Type: in vivo, C57BL/6 mice
Details: for treated animals in which development of EAE disease was prevented / No. of Animals Showing No Disease Activity: through day 35
Description: A chronic progressive model of EAE is an accepted animal model of human chronic progressive multiple sclerosis (MS). In this model, induction of chronic progressive EAE occurs following injections of myelin oligodendrocyte glycoprotein (MOG). Approximately 8 to 14 days after injection of MOG, animals develop chronic progressive paralysis similar to that observed in humans with chronic progressive MS.
Female C57BL/6 mice (8-10 weeks old) were used in this study (Taconic Farm, CA). Compounds of the present invention were formulated in 0.5% carboxymethyl cellulose (CMC) with 0.1% Polysorbate 80 to achieve a final concentration of either 1.2 mg/ml or 4.0 mg/ml. FTY-720 was also formulated in 0.5% carboxymethyl cellulose (CMC) with 0.1% Polysorbate 80 to achieve a final concentration of 2.0 mg/ml.
Induction of chronic progressive EAE by injection with myelin oligodendrocyte glycoprotein (MOG) was performed as follows. Mice were injected subcutaneously with 200 μg of myelin oligodendrocyte glycoprotein (MOG35-55) peptide emulsion in both sides of their pectoral regions (50 μl each side). At 8 hours and 48 hr after immunization with MOG, animals were injected intraperitoneally with 400 ng of pertussis toxin (PT) in 100 μl of saline. Control mice received both injections with an equivalent volume of saline without MOG or PT.
[…] FTY-720 (10 mg/kg) was used in this study as a positive control and was administered daily from day 0 to day 35.
Neurological scoring was performed daily from day 7 to day 35 following MOG injection. Grading of disease severity (i.e., disease score) was based on the following observations performed by two different observers: 0=no abnormality; 1=distal weakness of the tail (limp tail); 2=limp tail and weakness of hind legs (mild paraparesis); 3=limp tail and complete paralysis of hind legs or paralysis in one of one front leg and one hind leg (moderate paraparesis); 4=limp tail, complete hind leg and partial front leg paralysis (moderate quadraparesis); 5=complete hind and front leg paralysis (moribund). Analysis of variance (ANOVA) was performed on data from the measured (neurological score) parameters. p value≦0.05 were considered significant.

SMILES: N#Cc1nc(C(=O)NCC(=O)O)c(O)c2c(Oc3ccccc3)cccc12 [Compound A, [(1-Cyano-4-hydroxy-5-phenoxy-isoquinoline-3-carbonyl)-amino]-acetic acid]
- treated animals in which development of EAE disease was prevented (10 mg/kg as printed): 40%
- disease severity compared to vehicle-treated control EAE animals (10 mg/kg or 30 mg/kg as printed, p.o. three times a week, day 0-35, FIG. 5): reduction in disease severity at all timepoints
- treated animals in which development of EAE disease was prevented (30 mg/kg as printed, p<0.05): 43%
- No. of Animals Showing No Disease Activity (first EAE/Cmpd A row, dose not printed in Table 4 (Table 3: 6 mg/kg/d, 3 times a week)): 6/15
- No. of Animals Showing No Disease Activity (second EAE/Cmpd A row, dose not printed in Table 4 (Table 3: 20 mg/kg/d, 3 times a week)): 6/14

Source: patent publication US20110263642A1, “METHODS FOR TREATMENT OF MULTIPLE SCLEROSIS” (FibroGen, Inc., priority 2008, published 2011)
